tested on: HBV; experiment: In vitro anti-HBV activity in HepG2.2.15 cell line (intracellular HBV DNA by qPCR at 1 μM); format: cell-based; settings: Hepatitis B virus, 144 h; HepG2.2.15 cells, 1 μM compound, 6 days, intracellular HBV DNA as percentage compared to vehicle control (0.5% DMSO)
Procedure: The stable transfected HBV cell line, called HepG2.2.15 cells was a valuable model with high reproducibility and commonly used for drug screening. To identify the anti-HBV activity, HepG2.2.15 cells were seeded at 5×10^5 cells/well with high glucose Dulbecco's modified Eagle medium (DMEM) containing 10% heat inactivated fetal bovine serum (FBS), 300 mg/L G418, non-essential amino acids (NEAA) 100 units/ml Antibiotic-Antimycotic, and allowed to stand for an overnight in an incubator set at 37° C. and 5% C02. HepG2.2.15 cells in each well were treated with the medium containing a compound (1 μM with 0.5% dimethyl sulfoxide (DMSO final concentration) for three days in the incubator. After that the medium was removed and fresh medium containing the compound was added to the cells for another 3 days. After 6 days of treatment, intracellular HBV DNA was extracted and determined by using quantitative real-time PCR (qPCR) technique with specific primers. Intrahepatic HBV DNA viral load was reported as percentage compared to vehicle control (0.5% DMSO) as shown in Table A.
“B” means % ranging between 80 and 90; “C” means % ranging between 70 and 80; “D” means % ranging between 60 and 70; “E” means % ranging between 45 and 60, “F” means %<45.

`Cc1ncccc1-c1ccc(C(=O)N2CC[C@H](C(=O)Nc3cc(F)c(F)c(F)c3)C2)[nH]1` [Example 80, (S)-1-(5-(2-methylpyridin-3-yl)-1H-pyrrole-2-carbonyl)-N-(3,4,5-trifluorophenyl) pyrrolidine-3-carboxamide] and `N#Cc1ncccc1-c1ccc(C(=O)N2CC[C@H](C(=O)Nc3cc(F)c(F)c(F)c3)C2)[nH]1` [Example 97, (S)-1-(5-(2-cyanopyridin-3-yl)-1H-pyrrole-2-carbonyl)-N-(3,4,5-trifluorophenyl) pyrrolidine-3-carboxamide] cannot be ordered by activity at 1 µM: < 45% for the first, < 45% for the second.

Compared with `Cc1ncccc1-c1ccc(C(=O)N2CC[C@H](C(=O)Nc3ccc(F)c(C#N)c3)C2)[nH]1` [Example 81, (S)—N-(3-cyano-4-fluorophenyl)-1-(5-(2-methylpyridin-3-yl)-1H-pyrrole-2-carbonyl) pyrrolidine-3-carboxamide], `Cc1ncnc(C)c1-c1ccc(C(=O)N2CC[C@H](C(=O)Nc3ccc(F)c(C#N)c3)C2)[nH]1` [Example 94, (S)—N-(3-cyano-4-fluorophenyl)-1-(5-(4,6-dimethylpyrimidin-5-yl)-1H-pyrrole-2-carbonyl)pyrrolidine-3-carboxamide] is higher in activity at 1 µM: 45 to 60% for the first, 60 to 70% for the second.

`O=C(Nc1cc(F)c(F)c(F)c1)[C@H]1CCN(C(=O)c2ccc(-c3cccnc3)[nH]2)C1` [Example 82] and `O=C(Nc1cc(F)c(F)c(F)c1)[C@H]1CCN(C(=O)c2ccc(-c3ccncc3F)[nH]2)C1` [Example 95, (S)-1-(5-(3-fluoropyridin-4-yl)-1H-pyrrole-2-carbonyl)-N-(3,4,5-trifluorophenyl) pyrrolidine-3-carboxamide] fall in the same range of activity at 1 µM: 45 to 60% for the first, 45 to 60% for the second.

First: C[C@H]1[C@@H](C(=O)Nc2cc(F)c(F)c(F)c2)CCN1C(=O)c1ccc(-c2cnccn2)[nH]1 [Example 84, (2S,3S)-2-methyl-1-(5-(pyrazin-2-yl)-1H-pyrrole-2-carbonyl)-N-(3,4,5-trifluorophenyl) pyrrolidine-3-carboxamide]
Second: Cc1nccnc1-c1ccc(C(=O)N2CC[C@H](C(=O)Nc3cc(F)c(F)c(F)c3)[C@@H]2C)[nH]1 [Example 93, (2S,3S)-2-methyl-1-(5-(3-methylpyrazin-2-yl)-1H-pyrrole-2-carbonyl)-N-(3,4,5-trifluorophenyl) pyrrolidine-3-carboxamide]
The activity at 1 µM of the first is higher: > 90% for the first, < 45% for the second.

First: Cc1ncc(-c2ccc(C(=O)N3CC[C@H](C(=O)Nc4cc(F)c(F)c(F)c4)C3)[nH]2)cn1 [Example 86, (S)-1-(5-(2-methylpyrimidin-5-yl)-1H-pyrrole-2-carbonyl)-N-(3,4,5-trifluorophenyl)pyrrolidine-3-carboxamide]
Second: Cc1nccnc1-c1ccc(C(=O)N2CC[C@H](C(=O)Nc3cc(F)c(F)c(F)c3)C2)[nH]1 [Example 92, (S)-1-(5-(3-methylpyrazin-2-yl)-1H-pyrrole-2-carbonyl)-N-(3,4,5-trifluorophenyl)pyrrolidine-3-carboxamide]
The activity at 1 µM of the first is lower: < 45% for the first, 45 to 60% for the second.

First: Cc1n[nH]c(C)c1-c1ccc(C(=O)N2CC[C@H](C(=O)Nc3cc(F)c(F)c(F)c3)C2)[nH]1 [Example 87, (S)-1-(5-(3,5-dimethyl-1H-pyrazol-4-yl)-1H-pyrrole-2-carbonyl)-N-(3,4,5-trifluorophenyl) pyrrolidine-3-carboxamide]
Second: Cc1noc(C)c1-c1ccc(C(=O)N2CC[C@H](C(=O)Nc3cc(F)c(F)c(F)c3)C2)[nH]1 [Example 109, (S)-1-(5-(3,5-dimethylisoxazol-4-yl)-1H-pyrrole-2-carbonyl)-N-(3,4,5-trifluorophenyl) pyrrolidine-3-carboxamide]
The activity at 1 µM of the first is lower: < 45% for the first, 60 to 70% for the second.

Compared with `Cc1nn(C)c(C)c1-c1ccc(C(=O)N2CC[C@H](C(=O)Nc3cc(F)c(F)c(F)c3)C2)[nH]1` [Example 88, (S)—N-(3,4,5-trifluorophenyl)-1-(5-(1,3,5-trimethyl-1H-pyrazol-4-yl)-1H-pyrrole-2-carbonyl) pyrrolidine-3-carboxamide], `Cc1ncn(C)c1-c1ccc(C(=O)N2CC[C@H](C(=O)Nc3cc(F)c(F)c(F)c3)C2)[nH]1` [Example 107, (S)-1-(5-(1,4-dimethyl-1H-imidazol-5-yl)-1H-pyrrole-2-carbonyl)-N-(3,4,5-trifluorophenyl) pyrrolidine-3-carboxamide] is higher in activity at 1 µM: < 45% for the first, 70 to 80% for the second.

First: Cc1ncncc1-c1ccc(C(=O)N2CC[C@H](C(=O)Nc3cc(F)c(F)c(F)c3)C2)[nH]1 [Example 89, (S)-1-(5-(4-methylpyrimidin-5-yl)-1H-pyrrole-2-carbonyl)-N-(3,4,5-trifluorophenyl) pyrrolidine-3-carboxamide]
Second: Cc1ncsc1-c1ccc(C(=O)N2CC[C@H](C(=O)Nc3cc(F)c(F)c(F)c3)C2)[nH]1 [Example 108, (S)-1-(5-(4-methylthiazol-5-yl)-1H-pyrrole-2-carbonyl)-N-(3,4,5-trifluorophenyl) pyrrolidine-3-carboxamide]
The activity at 1 µM of the first is lower: < 45% for the first, 45 to 60% for the second.

First: O=C(Nc1cc(F)c(F)c(F)c1)[C@H]1CCN(C(=O)c2ccc(-c3ccccn3)[nH]2)C1 [Example 90, (S)-1-(5-(pyridin-2-yl)-1H-pyrrole-2-carbonyl)-N-(3,4,5-trifluorophenyl)pyrrolidine-3-carboxamide]
Second: O=C(Nc1cc(F)c(F)c(F)c1)[C@H]1CCN(C(=O)c2ccc(-c3cccnn3)[nH]2)C1 [Example 96, (S)-1-(5-(pyridazin-3-yl)-1H-pyrrole-2-carbonyl)-N-(3,4,5-trifluorophenyl)pyrrolidine-3-carboxamide]
The activity at 1 µM of the first is higher: 70 to 80% for the first, 45 to 60% for the second.

Compared with `Cn1ccnc1-c1ccc(C(=O)N2CC[C@H](C(=O)Nc3cc(F)c(F)c(F)c3)C2)[nH]1` [Example 91, (S)-1-(5-(1-methyl-1H-imidazol-2-yl)-1H-pyrrole-2-carbonyl)-N-(3,4,5-trifluorophenyl)pyrrolidine-3-carboxamide], `Cc1ccnnc1-c1ccc(C(=O)N2CC[C@H](C(=O)Nc3cc(F)c(F)c(F)c3)C2)[nH]1` [Example 98, (S)-1-(5-(4-methylpyridazin-3-yl)-1H-pyrrole-2-carbonyl)-N-(3,4,5-trifluorophenyl) pyrrolidine-3-carboxamide] is higher in activity at 1 µM: < 45% for the first, 70 to 80% for the second.

`COc1ncnc(C)c1-c1ccc(C(=O)N2CC[C@H](C(=O)Nc3ccc(F)c(Cl)c3)C2)[nH]1` [Example 106, (S)—N-(3-chloro-4-fluorophenyl)-1-(5-(4-methoxy-6-methylpyrimidin-5-yl)-1H-pyrrole-2-carbonyl)pyrrolidine-3-carboxamide] and `Cc1cc(NC(=O)[C@H]2CCN(C(=O)c3ccc(-c4ccnnc4)[nH]3)C2)ccc1F` [Example 130, (S)—N-(4-fluoro-3-methylphenyl)-1-(5-(pyridazin-4-yl)-1H-pyrrole-2-carbonyl)pyrrolidine-3-carboxamide] cannot be ordered by activity at 1 µM: < 45% for the first, < 45% for the second.

`Cc1nn(CC(=O)N2CC(O)C2)c(C)c1-c1ccc(C(=O)N2CC[C@H](C(=O)Nc3cc(F)c(F)c(F)c3)C2)[nH]1` [Example 112, (S)-1-(5-(1-(2-(3-hydroxyazetidin-1-yl)-2-oxoethyl)-3,5-dimethyl-1H-pyrazol-4-yl)-1H-pyrrole-2-carbonyl)-N-(3,4,5-trifluorophenyl)pyrrolidine-3-carboxamide] and `Cc1cc[nH]c(=O)c1-c1ccc(C(=O)N2CC[C@H](C(=O)Nc3cc(F)c(F)c(F)c3)C2)[nH]1` [Example 118, (S)-1-(5-(4-methyl-2-oxo-1,2-dihydropyridin-3-yl)-1H-pyrrole-2-carbonyl)-N-(3,4,5-trifluorophenyl)pyrrolidine-3-carboxamide] fall in the same range of activity at 1 µM: 60 to 70% for the first, 60 to 70% for the second.

First: O=C(Nc1cc(F)c(F)c(F)c1)[C@H]1CCN(C(=O)c2ccc(-c3cn[nH]c(=O)c3)[nH]2)C1 [Example 121, (S)-1-(5-(6-oxo-1,6-dihydropyridazin-4-yl)-1H-pyrrole-2-carbonyl)-N-(3,4,5-trifluorophenyl)pyrrolidine-3-carboxamide]
Second: Cc1cn[nH]c(=O)c1-c1ccc(C(=O)N2CC[C@H](C(=O)Nc3cc(F)c(F)c(F)c3)C2)[nH]1 [Example 124, (S)-1-(5-(5-methyl-3-oxo-2,3-dihydropyridazin-4-yl)-1H-pyrrole-2-carbonyl)-N-(3,4,5-trifluorophenyl)pyrrolidine-3-carboxamide]
The activity at 1 µM of the first is higher: 80 to 90% for the first, 45 to 60% for the second.

Compared with `Cc1cc(NC(=O)[C@H]2CCN(C(=O)c3ccc(-c4c(C)nn(CCO)c4C)[nH]3)[C@H]2C)ccc1F` [Example 126, (2S,3S)—N-(4-fluoro-3-methylphenyl)-1-(5-(1-(2-hydroxyethyl)-3,5-dimethyl-1H-pyrazol-4-yl)-1H-pyrrole-2-carbonyl)-2-methylpyrrolidine-3-carboxamide], `O=C(Nc1cc(F)c(F)c(F)c1)[C@H]1CCN(C(=O)c2ccc(-c3cnccn3)[nH]2)C1` [Example 131, (S)-1-(5-(pyrazin-2-yl)-1H-pyrrole-2-carbonyl)-N-(3,4,5-trifluorophenyl)pyrrolidine-3-carboxamide] is higher in activity at 1 µM: < 45% for the first, 45 to 60% for the second.

For `Cc1n[nH]c(C)c1-c1ccc2cc(C(=O)N3CC[C@H](C(=O)Nc4cc(F)c(F)c(F)c4)C3)[nH]c2c1` [Example 134, (S)-1-(6-(3,5-dimethyl-1H-pyrazol-4-yl)-1H-indole-2-carbonyl)-N-(3,4,5-trifluorophenyl)pyrrolidine-3-carboxamide], the activity at 1 µM was < 45%.

— patent publication US20230391752A1, “PYRROLIDINE-3-CARBOXAMIDE DERIVATIVES AND RELATED USES” (Chulalongkorn University, priority 2020, published 2023)
